One data set addresses T1, ligand binding domain of human type PPARα fused with DNA-binding domain of GAL4 (Homo sapiens, UniProt Q07869).
T1 construct: expressed in transfected cells; host or cells: CHO cells
T1 sequence (Q07869 239-466 limits assumed): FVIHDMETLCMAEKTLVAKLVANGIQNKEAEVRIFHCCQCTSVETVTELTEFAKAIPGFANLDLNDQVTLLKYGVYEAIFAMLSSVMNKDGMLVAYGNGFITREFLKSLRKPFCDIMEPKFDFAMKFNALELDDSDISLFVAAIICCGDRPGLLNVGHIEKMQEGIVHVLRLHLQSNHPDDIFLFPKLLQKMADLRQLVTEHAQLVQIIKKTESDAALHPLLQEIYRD
The data set can be described thus: Test of transcriptional activation on peroxisome proliferator-activated receptor α (GAL4 chimera luciferase reporter in CHO cells). It is filed as cell-based. The note with it: CHO cells cotransfected with GAL4-human PPARα LBD receptor plasmid and luciferase reporter; luciferase activity after 24 hours. From the text: Test of transcriptional activation on peroxisome proliferator-activated receptors α and γ
To CHO cells cultured in a Ham's F-12 medium with 10% fetal calf serum, receptor plasmid that expresses fused protein of DNA-binding domain of GAL4 being transcription factor of yeast with ligand binding domain of human type PPARs α and γ (Biochemistry, 1993, 32, 5598), firefly luciferase reporter plasmid (Promega Corp.) that is activated by GAL4 and sea shiitake mushroom luciferase plasmid (Promega Corp.) for internal standard were cotransfected with lipofectamine. Thereafter, testing compound dissolved into dimethyl sulfoxide (DMSO) (final concentration of DMSO 0.1%) and control drug were adjusted with Ham's F-12 medium containing 10% defatted fetal calf serum to culture. After 24 hours, the luciferase activity was measured.
(A reporter such as luciferase makes a cellular process visible.)
Turning to `CCCCC/C=C\C/C=C\C=C\[C@@H](O)C/C=C\CCCC(=O)O` [(8S)-HETE, 8-hydroxyeicosatetraenoic acid, reference compound], the EC50 (in general, the concentration that produces a half-maximal response) turned out to be 1300 nM.
`COc1ccc(CC(SC)C(N)=O)cc1C(=O)NCc1ccc(C(F)(F)F)cc1` (stereo not shown) [Example 3, 5-[2-Carbamoyl-2-(methylthio)ethyl]-2-methoxy-N-(4-trifluoromethylbenzyl)benzamide] had an EC50 of 2100 nM.
On the same count and under the same terms, next, `COc1ccc(CC(SC)C(=O)O)cc1C(=O)NCc1ccc(C(F)(F)F)cc1` (stereo not shown) [Example 7, 3-[4-Methoxy-3-[N-(4-trifluoromethylbenzyl)]carbamoylphenyl]-2-(methylthio)propionic acid]: 1200 nM.

Tested on in the next data set: not given
Experiment: not given
Conditions: not given
Take `COc1ccc(CC(S)C(N)=O)cc1C(=O)NCc1ccc(C(F)(F)F)cc1` (stereo not shown) [Example 6, 5-(2-Carbamoyl-2-mercaptoethyl)-2-methoxy-N-(4-trifluoromethylbenzyl)benzamide]: the melting point (in general, the temperature, or range, at which the solid turns liquid) lay in the range of 159 to 161 °C.
Compound `COc1ccc(CC(C(N)=O)[S+](C)[O-])cc1C(=O)NCc1ccc(C(F)(F)F)cc1` (stereo not shown) [Example 4, 5-[2-Carbamoyl-2-(methylsulfinyl)ethyl]-2-methoxy-N-(4-trifluoromethylbenzyl)benzamide] gave a melting point of 170 to 171 °C.
For the compound `COc1ccc(CC(SC)C(N)=O)cc1C(=O)NCc1ccc(C(F)(F)F)cc1` (stereo not shown) [Example 3, 5-[2-Carbamoyl-2-(methylthio)ethyl]-2-methoxy-N-(4-trifluoromethylbenzyl)benzamide], the melting point lay within 152.5 to 153.5 °C.
Compound `COc1ccc(CC(=O)O)cc1C(=O)NCc1ccc(C(F)(F)F)cc1` [Example 2, 4-Methoxy-3-[N-(4-trifluoromethylbenzyl)]carbamoylphenylacetic acid] came in with a melting point of 167 to 168 °C.
In the case of `COc1ccc(CC(C(=O)O)S(C)(=O)=O)cc1C(=O)NCc1ccc(C(F)(F)F)cc1` (stereo not shown) [Example 9, 3-[4-Methoxy-3-[N-(4-trifluoromethylbenzyl)]carbamoylphenyl]-2-(methylsulfonyl)propionic acid], the melting point was 158 to 159 °C.
In the case of `COc1ccc(CC(C(N)=O)S(C)(=O)=O)cc1C(=O)NCc1ccc(C(F)(F)F)cc1` (stereo not shown) [Example 5, 5-[2-Carbamoyl-2-(methylsulfonyl)ethyl]-2-methoxy-N-(4-trifluoromethylbenzyl)benzamide], the melting point was in the range of 219 to 220 °C.
`COc1ccc(C(=O)O)cc1C(=O)NCc1ccc(C(F)(F)F)cc1` [Example 1, 4-Methoxy-3-[N-(4-trifluoromethylbenzyl)carbamoyl]benzoic acid] displayed a melting point of 235.5 to 236.5 °C.

For the origin of these results see patent US6706763B1, “O-anisamide derivatives” (Kyorin Pharmaceutical Co., Ltd., priority 1999, dated 2004).
